Residue numbers refer to the chain shown, from its start.
Tests used:
mfT1R2a/mfT1R3 = molecular target: T1, mfT1R2a/mfT1R3 (Oryzias latipes, UniProt Q2MHK2+Q2MHK5); assay: Effect of anions, cations and osmotic pressure on cellular responses, cells in 10 mM Cl- buffer, mfT1R2a/mfT1R3; type: cell-based, medaka fish
T1 sequence (Q2MHK5 20-819): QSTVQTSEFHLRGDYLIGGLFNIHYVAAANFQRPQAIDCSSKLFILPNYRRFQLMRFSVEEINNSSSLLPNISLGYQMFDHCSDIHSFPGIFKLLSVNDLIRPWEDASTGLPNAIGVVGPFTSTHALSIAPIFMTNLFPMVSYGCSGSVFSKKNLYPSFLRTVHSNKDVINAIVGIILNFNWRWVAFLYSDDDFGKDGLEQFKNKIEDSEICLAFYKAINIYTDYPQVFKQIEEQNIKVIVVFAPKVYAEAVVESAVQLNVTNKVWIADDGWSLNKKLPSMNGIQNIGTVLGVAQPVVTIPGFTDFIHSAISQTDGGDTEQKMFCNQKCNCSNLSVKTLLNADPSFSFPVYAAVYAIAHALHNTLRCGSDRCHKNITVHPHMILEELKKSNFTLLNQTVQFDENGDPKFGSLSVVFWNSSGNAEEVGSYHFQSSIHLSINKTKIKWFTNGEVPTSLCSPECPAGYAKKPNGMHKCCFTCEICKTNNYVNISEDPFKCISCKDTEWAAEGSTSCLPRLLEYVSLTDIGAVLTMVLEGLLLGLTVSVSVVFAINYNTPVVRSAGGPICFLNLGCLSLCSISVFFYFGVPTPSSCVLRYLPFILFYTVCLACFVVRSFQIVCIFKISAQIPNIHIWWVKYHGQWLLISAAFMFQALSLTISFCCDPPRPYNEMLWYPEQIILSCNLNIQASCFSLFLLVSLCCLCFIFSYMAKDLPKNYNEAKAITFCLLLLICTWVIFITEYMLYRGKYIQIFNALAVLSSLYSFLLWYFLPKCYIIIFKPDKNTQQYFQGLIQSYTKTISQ
T1 sequence (Q2MHK2 20-853): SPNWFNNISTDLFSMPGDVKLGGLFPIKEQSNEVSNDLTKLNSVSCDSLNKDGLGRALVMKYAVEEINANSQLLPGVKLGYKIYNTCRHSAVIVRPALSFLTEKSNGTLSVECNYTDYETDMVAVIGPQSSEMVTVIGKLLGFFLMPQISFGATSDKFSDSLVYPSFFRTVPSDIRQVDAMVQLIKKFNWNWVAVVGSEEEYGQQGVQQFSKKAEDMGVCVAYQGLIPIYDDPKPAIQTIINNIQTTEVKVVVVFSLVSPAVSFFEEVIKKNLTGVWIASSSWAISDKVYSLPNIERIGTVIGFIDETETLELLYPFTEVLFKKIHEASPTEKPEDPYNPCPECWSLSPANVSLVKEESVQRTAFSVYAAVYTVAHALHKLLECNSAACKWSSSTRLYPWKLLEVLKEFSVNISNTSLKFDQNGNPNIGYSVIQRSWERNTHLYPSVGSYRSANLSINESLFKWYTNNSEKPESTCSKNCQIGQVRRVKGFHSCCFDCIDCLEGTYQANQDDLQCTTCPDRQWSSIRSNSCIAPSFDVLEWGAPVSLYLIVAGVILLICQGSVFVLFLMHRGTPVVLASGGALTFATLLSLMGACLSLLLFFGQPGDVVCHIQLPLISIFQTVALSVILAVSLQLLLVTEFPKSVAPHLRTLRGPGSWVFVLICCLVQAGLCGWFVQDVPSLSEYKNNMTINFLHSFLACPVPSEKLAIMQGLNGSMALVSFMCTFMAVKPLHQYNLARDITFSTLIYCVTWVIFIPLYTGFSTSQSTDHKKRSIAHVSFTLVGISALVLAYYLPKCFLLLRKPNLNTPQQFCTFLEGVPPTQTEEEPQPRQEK
Method: Cells were seeded in 96-well plates coated with ε-poly-L-lysine at approximately 70,000 cells per well. […] Fluorescence changes were monitored at 2 s intervals, as described above. […] Three independent experiments were conducted for each receptor, and representative results are shown as the mean ± SEM (n = 3 replicates). Statistical tests were conducted using KyPlot version 6.0 (KyensLab Inc., Tokyo, Japan). Statistical significance was set at p < 0.05.

hT1R2/hT1R3 = molecular target: T2, hT1R2/hT1R3 (Homo sapiens, UniProt Q7RTX0+Q8TE23); assay: Ca2+ mobilization dose-response assay, stable cells expressing hT1R2/hT1R3 with G16gust44; type: cell-based; settings: for sensitivity in high (141.4 mM) Cl- buffer vs 10 mM Cl- buffer: 10 mM vs 141.4 mM Cl- buffer
T2 construct: expressed in transfected cells
T2 sequence (Q8TE23 20-839): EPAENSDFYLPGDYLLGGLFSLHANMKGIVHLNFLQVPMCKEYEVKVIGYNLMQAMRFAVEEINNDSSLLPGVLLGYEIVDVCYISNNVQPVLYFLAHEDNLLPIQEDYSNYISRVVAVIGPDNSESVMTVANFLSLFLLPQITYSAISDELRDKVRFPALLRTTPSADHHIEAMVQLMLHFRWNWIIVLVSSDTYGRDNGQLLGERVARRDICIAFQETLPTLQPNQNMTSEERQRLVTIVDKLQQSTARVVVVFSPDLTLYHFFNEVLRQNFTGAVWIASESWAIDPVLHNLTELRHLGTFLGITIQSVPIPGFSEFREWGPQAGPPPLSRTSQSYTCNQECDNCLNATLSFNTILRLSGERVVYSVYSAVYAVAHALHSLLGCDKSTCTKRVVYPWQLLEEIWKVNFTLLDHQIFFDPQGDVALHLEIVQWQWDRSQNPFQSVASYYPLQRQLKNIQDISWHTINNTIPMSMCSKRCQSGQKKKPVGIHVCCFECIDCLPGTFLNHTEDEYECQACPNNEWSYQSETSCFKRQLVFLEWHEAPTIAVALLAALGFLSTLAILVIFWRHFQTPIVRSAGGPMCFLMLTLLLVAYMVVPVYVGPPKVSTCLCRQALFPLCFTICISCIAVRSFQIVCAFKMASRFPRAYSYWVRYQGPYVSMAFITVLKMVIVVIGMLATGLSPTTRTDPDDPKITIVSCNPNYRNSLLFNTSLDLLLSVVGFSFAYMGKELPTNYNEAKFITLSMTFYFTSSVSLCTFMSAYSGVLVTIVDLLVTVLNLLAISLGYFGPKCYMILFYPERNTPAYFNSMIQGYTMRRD
T2 sequence (Q7RTX0 21-852): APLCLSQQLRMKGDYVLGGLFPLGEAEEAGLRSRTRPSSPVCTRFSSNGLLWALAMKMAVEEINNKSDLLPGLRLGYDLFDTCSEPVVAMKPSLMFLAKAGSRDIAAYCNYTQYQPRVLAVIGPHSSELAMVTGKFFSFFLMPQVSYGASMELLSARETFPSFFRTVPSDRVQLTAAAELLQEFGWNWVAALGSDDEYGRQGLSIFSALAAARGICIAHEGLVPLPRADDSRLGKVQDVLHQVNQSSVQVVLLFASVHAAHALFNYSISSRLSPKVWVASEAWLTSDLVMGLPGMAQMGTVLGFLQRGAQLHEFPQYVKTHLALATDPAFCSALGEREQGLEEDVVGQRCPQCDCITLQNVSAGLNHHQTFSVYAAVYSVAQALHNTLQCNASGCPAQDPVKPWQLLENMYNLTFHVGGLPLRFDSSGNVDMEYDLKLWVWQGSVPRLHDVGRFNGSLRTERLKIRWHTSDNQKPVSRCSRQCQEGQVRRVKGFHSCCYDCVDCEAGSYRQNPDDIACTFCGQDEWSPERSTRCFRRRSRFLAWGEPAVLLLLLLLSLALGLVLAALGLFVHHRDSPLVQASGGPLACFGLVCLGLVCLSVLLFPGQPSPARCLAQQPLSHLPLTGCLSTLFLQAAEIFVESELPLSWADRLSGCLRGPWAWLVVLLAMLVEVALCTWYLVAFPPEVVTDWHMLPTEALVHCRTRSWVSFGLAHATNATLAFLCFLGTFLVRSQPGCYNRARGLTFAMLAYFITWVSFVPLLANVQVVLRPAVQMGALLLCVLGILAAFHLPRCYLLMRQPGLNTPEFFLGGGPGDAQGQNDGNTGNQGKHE
Method: (§1) The buffers with lower Cl^− were prepared by progressively replacing NaCl, KCl, CaCl2 and MgCl2 in the buffer with gluconate equivalents[20]. The pH was adjusted to 7.4 with NaOH. Ligands were diluted with the assay buffers at the desired concentrations.
Measurements of the responses of the cells by cell-based assay based on the intracellular Ca^2+ mobilization were carried out as described previously with some modifications[20],[34],[46],[47]. […] The cells were seeded in 96-well plates (clear-bottomed CellBIND surface plate, Corning, Glendale, AZ, USA) coated with ε-poly-L-lysine (Cosmo Bio, Tokyo, Japan) at approximately 70,000 cells per well. After 20 h, the medium was removed and replaced with high Cl^− buffer. After 3 h 30 min incubation at 27 °C, cells were loaded with 5 µM calcium-indicator dye Fluo-8 AM (AAT Bioquest, Sunnyvale, CA, USA) diluted in high Cl^− buffer. After incubation for 30 min at 27 °C, the cells were washed with buffers containing appropriate concentrations of Cl^−. The cellular assay was initiated after 3–5 min of resting and was completed within 5 min. The measurements were made using FlexStation 3 (Molecular Devices, Sunnyvale, CA, USA) at 27 °C. Fluorescence changes (i.e., excitation at 485 nm and emission at 525 nm with a cutoff at 515 nm) were monitored at 2 s intervals. A 100-µL aliquot of assay buffer supplemented with 2 × ligands was added at 20 s, and scanning was continued for an additional 40 s. The response of each well was determined as ∆RFU (delta relative fluorescent units), which was calculated as (maximum fluorescent value)—(minimum fluorescent value). […] Such normalized data from more than three independent experiments are reported as the mean ± standard error of the mean (SEM). Dose‒response fitting curves were calculated by Prism 9 (GraphPad Software, San Diego, CA) using nonlinear regression (log(agonist) vs. response—variable slope), based on the integrated data from the several independent experiments.

hT1R2/hT1R3 T102E = molecular target: T3, hT1R2/hT1R3 T102E (Homo sapiens, UniProt Q7RTX0+Q8TE23, T102E); assay: Ca2+ mobilization dose-response assay, site X mutant hT1R2/hT1R3 T102E; settings: EC50, [Cl-]o=10 mM; unit inferred
T3 sequence (Q8TE23 20-839): T2 sequence (Q8TE23 20-839)
T3 sequence (Q7RTX0 21-852 T102E): T2 sequence (Q7RTX0 21-852) with T82E
Method: as §1
Measurements of the responses of the cells by cell-based assay based on the intracellular Ca^2+ mobilization were carried out as described previously with some modifications[20],[34],[46],[47]. Cell lines stably expressing T1R2, T1R3 and chimeric G-protein α-subunit, G16gust44[48], were constructed using the Flp-In pcDNA5/FRT complete system (Thermo Fisher Scientific, Waltham, MA, USA) described in our previous studies[34],[46]. […] Fluorescence changes (i.e., excitation at 485 nm and emission at 525 nm with a cutoff at 515 nm) were monitored at 2 s intervals. […] The response of each well was determined as ∆RFU (delta relative fluorescent units), which was calculated as (maximum fluorescent value)—(minimum fluorescent value). […] Dose‒response fitting curves were calculated by Prism 9 (GraphPad Software, San Diego, CA) using nonlinear regression (log(agonist) vs. response—variable slope), based on the integrated data from the several independent experiments.

additional anion concentration needed to significantly increase the response intensity to L-Gln (mfT1R2a/mfT1R3; added to 10 mM Cl- buffer with 200 µM L-Gln) [mM]	response to fixed concentration of L-Gln on coapplication (mfT1R2a/mfT1R3; coapplied with 200 µM L-Gln, cells in 10 mM Cl- buffer, final [Cl-]o up to 60 mM)	cellular response to the salt alone (mfT1R2a/mfT1R3; without agonist, cells in 10 mM Cl- buffer)	sensitivity in high (141.4 mM) Cl- buffer vs 10 mM Cl- buffer (hT1R2/hT1R3)	EC50 (hT1R2/hT1R3; [Cl-]o=10 mM, unit inferred) [µM]	EC50 (hT1R2/hT1R3 T102E) [µM]	Compound
5	enhanced	did not elicit	–	–	–	[Br-].[Na+] [NaBr]
–	–	–	comparable	92.5	169	OC[C@H]1O[C@H](O[C@]2(CCl)O[C@H](CCl)[C@@H](O)[C@@H]2O)[C@H](O)[C@@H](O)[C@H]1Cl [sucralose, Sucralose]
–	–	–	comparable	–	–	N[C@H](Cc1c[nH]c2ccccc12)C(=O)O [D-tryptophan]

Source: paper PMC10539361, “Allosteric modulation of the fish taste receptor type 1 (T1R) family by the extracellular chloride ion” (Scientific Reports, 2023)
